Assay results from patent publication US20240140953A1, “INHIBITORS OF MENIN-MLL INTERACTION” (BIOMEA FUSION, INC., priority 2018, published 2024).
Where two headings read alike, the source gives them in different places.

Assays:
[1] = system: MV-4-11; test: Long term proliferation assay (Table 3A), MV-4-11; assay type: cell-based; conditions: Homo sapiens, MV4-11
Procedure: Example 5b: IC50 determination of compounds of invention in various cell lines (Long Term Proliferation Assay)
The following 5 cell lines are used or can be used for the long term proliferation assay.
Compounds of invention are tested in the 5 suspension lines by 14-day long-term proliferation assay.
The compound is tested in 10-pt dose titration (client will determine the starting concentration and the dilution scheme) and the final DMSO concentration is kept at 0.2%.
Vehicle and media control are also included. All treatments are done in triplicate.
3 plates are used for each cell line and 15 plates are used for the 5 cell lines.
• 1) On Day 0, in a flat bottom 96-well plate, add 100 μL of cells per well at the densities optimized. • 2) Prepare compounds in DMSO at 500× final concentration. Dilute the compounds with DMSO at the dilution. • 3) Dilute the compounds in media at 3×final concentration. Add 50 μL of compound or DMSO at 3× final concentration to each well. Final volume in each well is 150 μL, and final concentration of DMSO is 0.2%. Also include 3 untreated control wells, by adding 50 μL of media alone. 4) Incubate plates for 96 hours. • 5) Count the cells using the Acumen, with capabilities for 96-well plates. Pipette cells up and down to mix in each well, and add desired volume of cells to a new flat bottom poly-D-lysine 96-well plate. Add Calcein AM at 1 μM final concentration. Let cells sit at RT for 10 mins followed by a quick spin to get cells settled on the bottom of the wells. Incubate the plate for additional 40 mins in the incubator. Take out the plate and read by Acumen. Calculate the cell numbers taken into account the dilution factors. • 6) Split the master plate. To do this take the total viable cell count calculated using step 5). Take the average of the replicates for each dose in order to be used in splitting the cells. • 7) Use a 96 well V-bottom plate to spin down the cells to remove old media and compound to split the cells. Based on the split ratio place the proper amount of media and cells into the V-bottom plate, and spin the plate at 1100 rpm for 5 minutes. • 8) Following the spin remove the media, careful not to disturb the cellpellet. • 9) Re-suspend pellet in 100 μL fresh media, and add to a new 96-well flat bottom plate. • 10) Add fresh compound, in the same manner as Step 3). • 11) Incubate plates for 72 hours. Repeat steps 5)-10) on Day 7. • 12) Incubate plates for 96 hours. Repeat Step 5)-10) on Day 11. • 13) Incubate 72 hours and repeat step 5) to take a final count. • 14) Data Analysis
To calculate growth for days 4, 7, 11, and 14: • Calculate the split factor for day 4 to 7, day 7 to 11, and day 11-14.

[2] = system: MV4-11 (MLL-AF4); test: Proliferation study, CellTiterGlo, 4 days (Example 102), MV4-11; assay type: cell-based, human; conditions: MV4-11, 4 days treatment; for IC50: CellTiterGlo; for MV4-11 (MLL-AF4) % max: maximal inhibition
Description: The objective of the study was to evaluate the ability of representative compounds of the present invention, inhibitors of Menin/MLL interaction to inhibit cell proliferation. The proliferation inhibitory effect was investigated in two human MLL-leukemia cells selected on the bases of MLL fusion protein and listed in Table 102. HL-60 cell line was used as negative control.
ATP is present in all metabolically active cells and is considered as a marker for cell viability and proliferation. The metabolic cell activity was determined using the CellTiter-Glo kit from Promega, an ATP monitoring system based on the production of luminescence by the reaction of ATP with added UltraGlo® recombinant luciferase (Kawano et al., 2016), according to the supplier's experimental recommendations.
The described assay evaluates the ability of 4 representative compounds to inhibit the cell proliferation in the human MLL-leukemia cells plus a negative control cell line.
The assay provides potency values (IC50) for each test compound at a single time point Day 4 (T4).
Seven concentrations of the compounds (2.00E-05-6.67E-06-2.22E-06-7.41E-07-2.47E-07-8.23E-08-2.74E-08M), were assessed in duplicate in an individual test occasion in all the cell lines. MI-503 (Borkin et al., 2015) was used as reference compound and was tested at the same concentrations as the NCEs. 100% of proliferation is represented by the untreated cells (0.2% DMSO). The cell growth was monitored up to 4 days in culture.
MV4-11, MOLM-13 and HL-60 cells (see Table 2) were maintained in RPMI-1640 medium (Invitrogen, Cat. n. 618700, Batch n. 1965930) supplemented with 10% of Heat Inactivated FBS (Invitrogen, Cat n. 10500, Batch n. 08Q8078K) and 1% Pen-Strep (Invitrogen, Cat. N. 15140, Batch n. 1910859) and cultured at 37° C. in a humidified incubator with 5% CO2. All the cell lines grow in suspension and the cell density was maintained in a range of 2×10^5-1×10^6 viable cells/ml. Cells were pelleted at 130 g×5 min and conditioned medium was used to dilute the cell suspension.
Test items were dissolved in glass vials at 10 mM in DMSO with purity ≥99.9% (Sigma, D8418, batch n. SHBH4245V) and stored at −20° C. in 1.5 mL Eppendorf tubes.
Serial dilutions 1 to 3 in DMSO 100% were prepared starting from a 10 mM stock solutions to generate 7 points concentration response curve (CRC).
For each plate to test, one 0.4 μL copy plate and four 0.3 μL copy plates were then stamped into 96-well plates not treated for cell adhesion (Sarstedt—cat.no. 82.1581.001) by acoustic liquid Handling, Echo, at a concentration which was 500 fold the final assay concentration. Stamped plates were stored at −20° C. The final concentrations for the reference compound, MI-503, and the test items were: 2.00E-05, 6.67E-06, 2.22E-06, 7.41E-07, 2.47E-07, 8.23E-08 and 2.74E-08 M.
Cells were plated in 96-well flat bottom microtiter plates at cell density of 15,000 cells/ml for HL-60, 1000 cells/ml for MOLM-13 and 10,000 cell/ml for MV4-11. Cells were treated with 0.2% DMSO (Sigma, D8418, batch n. SHBH4245V) or serial dilutions of compounds (0.027 μM-20 μM) in DMSO (0.2% final concentration). Cells were incubated in a 5% CO2 incubator at 37° C. for 4 days. A CellTiterGlo viability assay (Promega) was employed. Luminescence was read by using VictorV (Perkin Elmer) multilabel plate reader using the standard protocol for luminescence in 96 well plate. The experiment was performed in duplicate.
Data were expressed as % of inhibition compared to the 0.2% DMSO negative control, and was calculated as follows: […]
CRCs were analysed by GraphPad and IC50 values were calculated by non-linear regression using 4 parameter-logistic equation. IC50 (μM) values were reported in the final data table. The curve fittings were performed leaving free all the parameters. Any constrain were reported in the results table.

[3] = MV-4-11, Day 4, read-out: MV-4-11 Day 4 IC50
[4] = Homo sapiens, MV4-11, 96 h, read-out: MV4-11 (MLL-AF4) IC50
[5] = Homo sapiens, MV4-11, 96 h, read-out: MV4-11 (MLL-AF4) pIC50 (converted)

IC50 [1, 3]	IC50 [2, 4]	IC50 [2, 5]	IC50 ([2]; read-out: MV4-11 (MLL-AF4) IC50)	IC50 ([1]; MV-4-11, Day 11, read-out: MV-4-11 Day 11 IC50)	SMILES	MV4-11 (MLL-AF4) % max [2]	inhibition of cell viability (in words) ([2]; up to 20 μM)
430 nM	430 nM	427 nM			O=C(Cc1cc(-c2cccnc2)n[nH]1)Nc1ccc(-c2nc3c(N4CCOCC4)ncnc3[nH]2)cc1 [Compound 12, N-{4-[6-(morpholin-4-yl)-9H-purin-8-yl]phenyl}-2-[3-(pyridin-3-yl)-1H-pyrazol-5-yl]acetamide]	89%	fully inhibited
280 nM	200 nM	282 nM	280 nM		Cn1nc(-c2cccnc2)cc1CC(=O)Nc1ccc(-c2cc3c(N4CCOCC4)ncnc3[nH]2)cc1 [Compound 11, 2-[1-methyl-3-(pyridin-3-yl)-1H-pyrazol-5-yl]-N-{4-[4-(morpholin-4-yl)-7H-pyrrolo[2,3-d]pyrimidin-6-yl]phenyl}acetamide]	100%	
490 nM	490 nM	490 nM		257 nM	O=C(Nc1ccc(-c2cc3c(N4CCOCC4)ncnc3[nH]2)cc1)Nc1cc(-c2cccnc2)n[nH]1 [Compound 9, 1-{4-[4-(morpholin-4-yl)-7H-pyrrolo[2,3-d]pyrimidin-6-yl]phenyl}-3-[3-(pyridin-3-yl)-1H-pyrazol-5-yl]urea]	102%	
